Experimental data reported in patent publication US20050232925A1, “Protease activity of thrombin inhibits angiogenesis” (priority 2002, published 2005).

Legend:
[1] = test system: microvessels in bFGF-containing matrigel plugs; assay: In vivo angiogenesis (matrigel plug) assay, systemic treatment; design: species or system mice; details: rt-PA 60 μg subcutaneously/day, captopril 150 μg intraperitoneally/day, 10 days
Experimental: In Vivo Angiogenesis (Matrigel Plug) Assay. The matrigel-plug assay was performed as described in Maeshima et al., (Maeshima et al., J Biol Chem 275:21340-8, 2000; Maeshima et al., J Biol Chem 276:31959-68, 2001) with modifications as follows. All animal studies were reviewed and approved by the animal care and use committee of Beth Israel Deaconess Medical Center and are in accordance with the guidelines of the department of Health and Human Services. Five to six week-old male C57/BL6 mice (The Jackson Laboratories; Bar Harbor, Me.) were injected subcutaneously at the left lower abdominal wall with 0.5 ml of unpolymerized matrigel supplemented with 500 ng/ml of basic fibroblast growth factor for the stimulated controls and treatment groups and with equivalent volume of sterile PBS for the unstimulated (no b-FGF) control group. Mice (3 per group) were treated for 10 days with: 1) rt-PA (60 μg subcutaneously/day) and captopril (150 μg intraperitoneally/day). 2) Subcutaneous rt-PA alone with equivalent volume of intraperitoneal (IP) PBS. 3) IP captopril (150 μg) with equivalent volume of subcutaneous PBS. 4) Equivalent volumes of PBS (subcutaneously and intraperitoneally). […] Sections were examined by light microscopy, and the total number of blood vessels from 10 high power fields (400× magnification) were counted in a blinded fashion. […]

HUVEC cells = assay: In vitro angiogenesis (matrigel tube formation) assay; format: cell-based, human
Experimental: In Vitro Angiogenesis (matrigel tube formation) Assay. Unpolymerized matrigel (7 mg/ml) was placed in the wells (100 μl/well) of a pre-chilled 48-well cell culture plate and then incubated at 37° C. for 30-45 minutes. HUVEC cells were harvested in trypsin and resuspended in EC medium (4×10^4 in 300 μl). Cells were treated with the different agents before plated onto the matrigel-coated plates. […] Microphotographs of the center of each well at low power (40×) were taken with a SPOT camera (Diagnostic Instruments Inc; Sterling Heights, Mich.) and the aid of an imaging capture software (Compix Inc Imaging Systems; Township, Pa.). The microphotographs were quantitatively analyzed (total tube length) with the Simple PCI imaging analysis software (Compix).
Matrigel tube formation assays. Samples collected from the purification process were exchanged into 1×PBS and reconstituted into 1× concentration (by volume) compared to the input tPA/captopril-treated plasma. They were tested in the matrigel tube formation assays at 10% (v/v) as follows. Unpolymerized matrigel (7 mg/ml) was placed in the wells (100 μl/well) of a pre-chilled 48-well cell culture plate and then incubated at 37° C. for 30-45 minutes for polymerization to take place. […] Tube formation was examined (4× magnification) through an inverted phase contrast microscope (Nikon Corporation; Tokyo, Japan) and recorded by a Spot RT camera (Diagnostic Instruments Inc; Sterling Heights, Mich.) using an automated image capture software (Compix Inc Imaging Systems; Township, Pa.).

platelet aggregation = details: phenylalanine to alanine mutation at position 2; cited from earlier work
[2] = test system: blood vessels in bFGF-enriched matrigel plugs; assay: In vivo matrigel-plug assay, agent mixed into matrigel; design: species or system mice
Experimental: In vivo matrigel-plug assays. The matrigel-plug assay was performed as described in Maeshima et al., (Maeshima et al., J Biol Chem 275:21340-8, 2000; Maeshima et al., J Biol Chem 276:31959-68, 2001) with modifications as follows. Briefly, 500 μl of unpolymerized matrigel at a concentration of 10 mg/ml enriched with bFGF (250 ng/ml) were mixed with one of the following: PBS (vehicle), prothrombin, or TRAP. Each mixture was injected subcutaneously at the left lower abdominal wall of C57/B mice (5 to 6-week old; Jackson laboratories; Bar Harbor, Me.). At day ten, the mice were sacrificed. The matrigel plugs were then excised, fixed in 4% paraformaldehyde, embedded in paraffin, sectioned, and H&E stained. Sections were examined by light microscopy, and the total number of blood vessels from 10 high power fields (400×) were counted in a blinded fashion. Only the micro-vessels containing red blood cells were counted as positive. Results shown represent the average of counts from 4 to 5 matrigel plugs per group.

[3] = test system: 4T1 murine breast cancer cell line; assay: Primary tumor growth of transfected 4T1 cells in BALB/c mice; format: in vivo; details: stable expression in 4T1 cells, mammary pad of BALB/c mice, vs empty vector, five weeks
From the text: Construction of mutant uPA clones and cell transfection. We chose to pursue a genetic approach, in which we stably transfected an aggressive and highly metastatic murine breast cancer cell line (4T1) with the genes for wild type uPA, tPA and a receptor binding mutant of uPA (uPAm). We inserted the cDNA encoding murine tPA into pcDNA 3.1 (+) (Invitrogen), a CMV driven mammalian expression vector, by restriction enzyme digestion of BamHI and NheI. Wild type uPA cDNA was inserted to the pcDNA 3.1 (+) expression vector and the transfected into 4T1 cells in a similar fashion as described for the tPA cDNA. Residues 22, 27, 29 and 30 on the growth factor domain of the murine uPA molecule have been implicated in binding to mouse uPAR.
The pcDNA 3.1-tPA, pcDNA 3.1-wild type uPA, pcDNA 3.1-uPAm constructs, as well as an empty vector control were introduced into 4T1 cells by transfection using lipofectamine (Gibco-BRL) reagent. We selected 12-14 stable single clones in each group with 500 ug/mL of hygromycin. Each of the clones was evaluated for generation of the gene of interest by northern blot. The clones that had the highest generation of the genes of interest were selected. […]
Experiments using transfected tumor cells. […] Primary tumor size was measured every other day for a total of five weeks using calipers and calculated using the standard formula (width2×length×0.52). […]

Molecule: C[C@H](CS)C(=O)N1CCC[C@H]1C(=O)O [captopril]
- microvessel counts in matrigel plugs [1]: did not show major reduction of neovascularization
- inhibition of tube formation (HUVEC cells; in the absence of plasma, rt-PA 1 μg/ml, captopril 0.1 μM): did not cause significant inhibition of tube formation

Molecule: Angiostatin
- inhibition of tube formation (HUVEC cells; 10 μg/ml): did not significantly inhibit tube formation
- inhibition of tube formation (HUVEC cells; 50 μg/ml): did not significantly inhibit tube formation

Molecule: GYPGKF
- endothelial cell tube formation (HUVEC cells; 100 μM peptide): little effect on tube formation

Molecule: SALLRN
- ability to induce platelet aggregation in vitro (platelet aggregation): completely eliminated the ability of the peptide to induce platelet aggregation
- endothelial cell tube formation (HUVEC cells; 100 μM peptide): no inhibitory effect

Molecule: SFLLRN
- endothelial cell tube formation (HUVEC cells; 50 and 100 μM SFLLRN): dose-dependent inhibitory effect on endothelial cell tube formation

Molecule: SFLLRNPNDKYEPF [TRAP]
- reduction of bFGF-stimulated blood vessel formation in matrigel plugs ([2]; 250 ng/ml bFGF, day 10, 10 ρg/ml prothrombin, 250 μM TRAP (FIG. 13)): significantly reduced
- endothelial cell tube formation (HUVEC cells; 1, 10, 100 μM TRAP): dose-dependently inhibited endothelial cell tube formation

Molecule: SLIGKV
- endothelial cell tube formation (HUVEC cells; 100 μM peptide): little effect on tube formation

Molecule: bFGF: basic fibroblast growth factor (Peprotech), proangiogenic stimulant
- increase in angiogenesis in matrigel plugs ([2]; 250 ng/ml bFGF vs no bFGF): seven-fold increase

Molecule: lepirudin
- block of thrombin inhibition of tube formation (HUVEC cells; 10 U/ml thrombin with 200 U/ml lepirudin): completely blocked
- endothelial cell tube formation (HUVEC cells; lepirudin alone at 200 U/ml): no effects in endothelial cell tube formation
- block of prothrombin inhibition of tube formation (HUVEC cells; prothrombin with 200 U/ml lepirudin): completely blocked

Molecule: thrombin
- endothelial cell tube formation (HUVEC cells; thrombin at 5 U/ml (FIGS. 11D, 11E: 1 and 5 U/ml)): minimal effects on endothelial cell tube formation
- endothelial cell tube formation (HUVEC cells; thrombin at 10 U/ml): significantly inhibits tube formation

Molecule: wildtype uPA: murine wild type uPA expressed from pcDNA 3.1 in 4T1 cells
- inhibition of primary tumor growth [3]: significantly inhibit tumor cell growth
